Test results as given in BindingDB's records for doi:10.1016/j.ejmech.2014.09.012 (Shandong University, 2014).

Experiment: Inhibition of HIV-1 isolate YTA48P HIV-1 gp120

CC1(C)CC(NC(=O)C(=O)Nc2ccc(Cl)cc2)CC(C)(C)N1 [N-(4-chlorophenyl)-N'-(2,2,6,6-tetramethylpiperidin-4-yl)-oxalamide]
IC50: 610 nM
